Paper PMC10443802, “Targeting a xenobiotic transporter to ameliorate vincristine-induced sensory neuropathy” (JCI Insight, 2023)
Several values for one entry are separate records, joined by “and”; a condition that tells them apart may be missing. Equal values may be shown once.

Columns and labels:
hOATP2B1 = hOATP2B1 (Homo sapiens, UniProt O94956); test: Vincristine uptake screen, HeLa cells overexpressing hOATP2B1; type: in vitro ADME
Procedure: (§1) Relative uptake is expressed as percentage change compared with empty vector controls (n = 4–14 per group). […] Human OATP1B1 and OATP1B3 transporter–overexpressed cells were used as positive controls; empty vector controls were used as the negative control. […] Mechanical allodynia (C), thermal hyperalgesia (D), and sciatic nerve maximal action potential amplitudes (E) are expressed as percentage change relative to baseline values (n = 6–8 per group). Statistical analysis was performed using a 2-way ANOVA with Bonferroni’s post hoc test. **P < 0.01, ***P < 0.001, ****P < 0.0001, compared with baseline values. […] Data are shown as mean ± SEM. […]
(§2) transfected with transporters of interest, including hOAT1, hOAT3, hOAT4, hOATP1A2, hOATP3A1, hOATP4A1, hOATP5A1, hOATP1C1, hOATP1B1, hOATP1B3, hOATP2B1, hOCT1, hOCT2, hOCTN1, hOCTN2, hASBT, hNTCP, hNPT1, hMATE1, hOSTα/β, hPEPT1, hPEPT2, rOatp1a1, rOatp1a4, rOatp1a5, rOatp1b2, rNtcp, rAsbt, rOat1, and rOct1. Cells were transfected with expression plasmid or vector control lacking any insert using Lipofectin reagent (Invitrogen). […] The cellular radioactivity was quantified by liquid scintillation counting as described above. […]
Samples were analyzed using real-time quantitative PCR and Taqman Probes (Applied Biosystems). The relative gene expression was determined using the ΔΔCt method, and normalized to the mouse or human housekeeping gene, GAPDH. […]

hOCTN1 = hOCTN1 (Homo sapiens, UniProt Q9H015); test: Vincristine uptake screen, HeLa cells overexpressing hOCTN1; type: in vitro ADME
Sequence of hOCTN1 (Q9H015 whole entry): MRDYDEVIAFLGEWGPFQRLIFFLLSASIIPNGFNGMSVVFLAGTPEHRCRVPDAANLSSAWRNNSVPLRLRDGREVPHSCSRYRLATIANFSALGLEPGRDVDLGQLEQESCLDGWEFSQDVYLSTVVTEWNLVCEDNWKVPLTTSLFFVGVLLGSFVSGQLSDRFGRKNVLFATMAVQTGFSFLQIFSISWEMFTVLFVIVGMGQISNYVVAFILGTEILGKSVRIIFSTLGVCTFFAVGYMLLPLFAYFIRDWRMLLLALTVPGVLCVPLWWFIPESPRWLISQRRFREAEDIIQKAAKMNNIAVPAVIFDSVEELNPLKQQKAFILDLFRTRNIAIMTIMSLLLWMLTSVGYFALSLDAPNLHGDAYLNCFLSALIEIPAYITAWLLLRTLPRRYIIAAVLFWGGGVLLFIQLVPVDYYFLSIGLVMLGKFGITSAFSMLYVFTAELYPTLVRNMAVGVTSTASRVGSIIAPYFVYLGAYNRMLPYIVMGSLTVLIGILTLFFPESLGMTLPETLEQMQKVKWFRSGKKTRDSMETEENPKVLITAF
Procedure: as §1
as §2, with “(Invitrogen). Sixteen hours thereafter, cells were washed with transport media (OPTIMEM, Invitrogen) and treated with radiolabeled drug.” for “(Invitrogen).”

mice [1] = tested on: mice
DRG neurons = test: DRG morphology and morphometry (neuron cell area); type: in vivo, mouse
mice [2] = test: Thermal hyperalgesia, Hargreaves test (paw withdrawal latency)
[3] = Vincristine accumulation in DRG and liver (tissue to plasma AUC ratio)
Procedure: injection at a dose of 1 mg/kg. Whole blood samples were collected 0.08, 0.25, 0.5, 1, and 4 h, and livers were collected at the final time point.
specimens were stored at -80°C until further processing.
stainless steel bead (Qiagen) and processed for 4 min at 40 Hz. Finally, the beads were removed, and the homogenized samples were stored at -80°C until analysis by LC-MS/MS.
Pharmacokinetic parameters were calculated by non -compartmental analysis using Phoenix WinNonlin version 8.0 (Certara). Peak plasma concentration (C max) was determined by visual inspection of the data from the concentration-time curves. The linear trapezoidal rule was used to obtain the area under the plasma concentration-time curve (AUC), and drug levels in tissues were corrected for
Quantiva triple quadrupole mass spectrometer from Thermo Fisher Scientific was used for LC-MS/MS
analysis. An Accucore aQ column (150 × 2.1 mm, dp = 2.6 μm, Thermo Fisher Scientific) was protected
volume was 5.0 μL. The temperature of the autosampler rack was 4°C, and the temperature of the
column was maintained at 50°C. Mobile phase A consisted of water with 0.1% (v/v) formic acid and
mobile phase B consisted of acetonitrile: methanol (1:1) with 0.1% (v/v) formic acid. The total run time […]
Precursor molecular ions and product ions were recorded for confirmation and
quantification was 5 ng/mL. […]

mice [4] = test: Nerve conduction studies (sciatic/digital and caudal nerve action potential amplitude and conduction velocity)
hOATP1B1 = biological target: T1, hOATP1B1 (Homo sapiens, UniProt Q9Y6L6); test: Inhibition of vincristine uptake in HEK293 cells overexpressing hOATP1B1; settings: inhibitor 15 min pre-treatment
T1 sequence (Q9Y6L6 1-691): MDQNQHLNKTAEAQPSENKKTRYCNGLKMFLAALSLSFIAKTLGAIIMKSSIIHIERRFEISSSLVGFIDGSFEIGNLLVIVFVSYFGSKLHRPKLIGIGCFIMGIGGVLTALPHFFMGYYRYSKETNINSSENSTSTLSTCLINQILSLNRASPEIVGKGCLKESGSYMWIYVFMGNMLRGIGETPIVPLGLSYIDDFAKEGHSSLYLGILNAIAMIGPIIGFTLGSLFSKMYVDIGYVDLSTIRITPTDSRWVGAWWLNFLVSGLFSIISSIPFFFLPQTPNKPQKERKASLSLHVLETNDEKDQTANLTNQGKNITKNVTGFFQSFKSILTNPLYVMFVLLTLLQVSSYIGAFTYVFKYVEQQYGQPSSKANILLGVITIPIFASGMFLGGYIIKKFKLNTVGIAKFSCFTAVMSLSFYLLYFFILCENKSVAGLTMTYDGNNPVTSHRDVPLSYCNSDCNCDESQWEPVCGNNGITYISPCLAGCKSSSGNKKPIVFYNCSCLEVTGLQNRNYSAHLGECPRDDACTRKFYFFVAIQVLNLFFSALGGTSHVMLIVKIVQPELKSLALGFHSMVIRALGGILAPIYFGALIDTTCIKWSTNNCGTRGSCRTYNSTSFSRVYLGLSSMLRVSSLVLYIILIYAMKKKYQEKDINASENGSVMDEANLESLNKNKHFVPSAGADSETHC

OATP1B2 = test: Plasma level and DRG/plasma ratio of α-tocopherol in mice (biomarker of OATP1B2 function); type: in vivo, mouse; settings: WT mice treated with the inhibitor; plasma
[5] = KO (OATP1B2-/-) mice, vincristine 1 mg/kg weekly i.p. + vehicle pretreatment, 4 weeks
[6] = OATP1B2(-/-) mice, vincristine 1 mg/kg weekly, Week 4
[7] = WT mice, nilotinib 100 mg/kg p.o. 30 min before each vincristine 1 mg/kg, 4 weeks
[8] = OATP1B2(-/-) mice + Nilotinib, Baseline
[9] = OATP1B2(-/-) mice + Nilotinib, Week 4
[10] = Wild-type mice + Nilotinib, Baseline
[11] = Wild-type mice + Nilotinib, Week 4

Sequence of hOATP2B1 (O94956 whole entry): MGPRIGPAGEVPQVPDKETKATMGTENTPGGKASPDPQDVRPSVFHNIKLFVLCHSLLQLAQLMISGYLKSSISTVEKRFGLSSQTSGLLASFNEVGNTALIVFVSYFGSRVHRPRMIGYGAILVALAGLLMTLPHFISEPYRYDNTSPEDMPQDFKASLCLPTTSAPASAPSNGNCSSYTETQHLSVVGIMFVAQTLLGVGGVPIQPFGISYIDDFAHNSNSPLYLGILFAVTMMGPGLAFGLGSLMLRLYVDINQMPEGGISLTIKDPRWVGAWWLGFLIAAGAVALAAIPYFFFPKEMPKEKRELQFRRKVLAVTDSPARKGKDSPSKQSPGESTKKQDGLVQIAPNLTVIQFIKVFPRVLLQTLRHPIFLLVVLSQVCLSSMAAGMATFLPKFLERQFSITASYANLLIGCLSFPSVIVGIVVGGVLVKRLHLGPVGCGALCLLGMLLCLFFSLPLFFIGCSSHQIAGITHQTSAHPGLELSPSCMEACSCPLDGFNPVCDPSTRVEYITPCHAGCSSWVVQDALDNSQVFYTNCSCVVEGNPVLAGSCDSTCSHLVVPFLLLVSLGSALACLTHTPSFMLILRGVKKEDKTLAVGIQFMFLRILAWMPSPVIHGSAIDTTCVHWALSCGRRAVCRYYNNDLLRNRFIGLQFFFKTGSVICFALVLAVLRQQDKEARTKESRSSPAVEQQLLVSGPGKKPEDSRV

For `CC[C@]1(O)C[C@H]2CN(CCc3c([nH]c4ccccc34)[C@@](C(=O)OC)(c3cc4c(cc3OC)N(C=O)[C@H]3[C@@](O)(C(=O)OC)[C@H](OC(C)=O)[C@]5(CC)C=CCN6CC[C@]43[C@@H]65)C2)C1` [Vincristine, vincristine], the “Vincristine uptake (% of vector control)” value (hOATP2B1) was 113.00 % of vector control and 80.00 % of vector control and 88.00 % of vector control and 105.00 % of vector control and 83.00 % of vector control and 131.00 % of vector control and 125.00 % of vector control and 135.00 % of vector control, the “Vincristine uptake (% of vector control)” value (hOCTN1) was 169.00 % of vector control and 132.00 % of vector control and 109.00 % of vector control and 131.00 % of vector control and 135.00 % of vector control and 167.00 % of vector control and 158.00 % of vector control and the “Protection against treatment-related mechanical allodynia by OATP1B2 deficiency” value (mice [1]; mouse, in vivo) was “protection against treatment-related mechanical allodynia was only observed”. The “Cell size of DRG neurons” value (DRG neurons; WT mice, vincristine 1 mg/kg weekly, 4 weeks) was “reduction in cell size of DRG neurons”, the “Paw withdrawal latency (%Δ from baseline)” value (mice [2]; [5]) was 115.4 %Δ from baseline and 102.8 %Δ from baseline and 99.5 %Δ from baseline and 93.2 %Δ from baseline and 105.4 %Δ from baseline and 88 %Δ from baseline and 77.4 %Δ from baseline and the “Paw withdrawal latency (%Δ from baseline)” value (mice [2]; [6]) was 94.3 %Δ from baseline and 92.7 %Δ from baseline and 101.2 %Δ from baseline and 102.2 %Δ from baseline and 111.0 %Δ from baseline and 84.6 %Δ from baseline and 112.1 %Δ from baseline. For the same compound, the “Paw withdrawal latency (%Δ from baseline)” value (mice [2]; WT mice, vincristine 1 mg/kg weekly i.p. + vehicle pretreatment, 4 weeks) was 66.8 %Δ from baseline and 70.6 %Δ from baseline and 94.2 %Δ from baseline and 54.6 %Δ from baseline and 68.3 %Δ from baseline and 64.2 %Δ from baseline and 82.5 %Δ from baseline, the “Paw withdrawal latency (%Δ from baseline)” value (mice [2]; Wild-type mice, vincristine 1 mg/kg weekly, Week 4) was 61.8 %Δ from baseline and 39.1 %Δ from baseline and 56.0 %Δ from baseline and 42.8 %Δ from baseline and 56.3 %Δ from baseline and 55.6 %Δ from baseline and the “Uptake of vincristine in liver and whole DRG samples” value ([3]; OATP1B2-deficient vs WT mice, LC/MS/MS or MALDI-MS imaging) was “decreased uptake of vincristine”. The Sciatic nerve amplitude (mice [4]; [5]) was 107.5 %Δ from baseline and 81.9 %Δ from baseline and 90.9 %Δ from baseline and 97.4 %Δ from baseline and 87.3 %Δ from baseline and 91.9 %Δ from baseline and 109.9 %Δ from baseline and the Sciatic nerve amplitude (mice [4]; [6]) was 90.9 %Δ from baseline and 97.4 %Δ from baseline and 87.3 %Δ from baseline and 91.9 %Δ from baseline and 109.9 %Δ from baseline and 107.5 %Δ from baseline and 81.9 %Δ from baseline.
For `Cc1cn(-c2cc(NC(=O)c3ccc(C)c(Nc4nccc(-c5cccnc5)n4)c3)cc(C(F)(F)F)c2)cn1` [Nilotinib, nilotinib], the “Vincristine uptake (% of vehicle)” value (hOATP1B1) was 101.303 % of vehicle and 90.7094 % of vehicle and 62.8074 % of vehicle and 106.906 % of vehicle and 107.581 % of vehicle and 108.402 % of vehicle, the “Protection against vincristine-associated changes in mechanical allodynia, thermal hyperalgesia and sciatic nerve maximal AMP” value (mice [1]; 100 mg/kg orally 30 minutes before each of 4 vincristine doses of 1 mg/kg) was “effectively protected against treatment-associated changes” and the “Level of α-tocopherol (% of wild-type baseline), Plasma” value (OATP1B2) was 242.352% and 175.541% and 133.994%. The “Cell area changes (%Δ from baseline)” value (DRG neurons; OATP1B2(-/-) mice + Nilotinib) was 0.695% and -1.012% and -0.86%, the “Cell area changes (%Δ from baseline)” value (DRG neurons; Wild-type mice + Nilotinib) was 0.351% and -0.994% and -0.034% and the “Prevention of vincristine-induced reduction in cell size of DRG neurons” value (DRG neurons; nilotinib 100 mg/kg p.o. pretreatment) was “could be prevented by pretreatment with nilotinib”. The “Paw withdrawal latency (%Δ from baseline)” value (mice [2]; KO (OATP1B2-/-) mice, nilotinib 100 mg/kg p.o. 30 min before each vincristine 1 mg/kg, 4 weeks) was 81.1 %Δ from baseline and 88.2 %Δ from baseline and 119.5 %Δ from baseline and 100.4 %Δ from baseline and 93.8 %Δ from baseline and 69.5 %Δ from baseline, the “Paw withdrawal latency (%Δ from baseline)” value (mice [2]; [7]) was 137.5 %Δ from baseline and 110.5 %Δ from baseline and 107.4 %Δ from baseline and 126 %Δ from baseline and 95.3 %Δ from baseline and 92.7 %Δ from baseline and the “Influence of pretreatment on accumulation of vincristine in whole DRG samples” value ([3]; nilotinib 100 mg/kg, vincristine 1 mg/kg) was “significantly diminished by nilotinib”. For the same compound, the Caudal nerve amplitude (mice [4]; [8]) was 95.6% and 93.7% and 108.6% and 106% and 98.1%, the Caudal nerve velocity (mice [4]; [8]) was 102.8% and 100.9% and 101.1% and 98% and 97.3% and the Sciatic nerve amplitude (mice [4]; [8]) was 114.4% and 121.2% and 118.7% and 82.8% and 93.6% and 69.3%. The Sciatic nerve velocity (mice [4]; [8]) was 95.7% and 106.4% and 97.8% and 107.3% and 98.7% and 94.1%, the Caudal nerve amplitude (mice [4]; [9]) was 89.3% and 94% and 95.6% and 104.4% and 86.9% and the Caudal nerve velocity (mice [4]; [9]) was 97.1% and 98.5% and 95% and 100.3% and 98.1% and 98.7%. The Sciatic nerve velocity (mice [4]; [9]) was 92.3% and 108.6% and 101.5% and 100.5% and 93.7% and 102.8%, the Sciatic nerve amplitude (mice [4]; [7]) was 108.6 %Δ from baseline and 88.8 %Δ from baseline and 77.9 %Δ from baseline and 89.5 %Δ from baseline and 98.8 %Δ from baseline and 89.1 %Δ from baseline and the Caudal nerve amplitude (mice [4]; [10]) was 120.6% and 88.2% and 115.9% and 89.2% and 91.2% and 94.8%. The Caudal nerve velocity (mice [4]; [10]) was 98.2% and 90.4% and 108% and 104.2% and 102% and 97.3%, the Sciatic nerve amplitude (mice [4]; [10]) was 97.8% and 93% and 117% and 84.6% and 113.5% and 94% and the Sciatic nerve velocity (mice [4]; [10]) was 102.2% and 108.4% and 96.7% and 95.6% and 94.8%. The Caudal nerve amplitude (mice [4]; [11]) was 63.6% and 79.9% and 91.5% and 110.8% and 56.5% and 79.7%, the Caudal nerve velocity (mice [4]; [11]) was 92.7% and 93.3% and 98.1% and 103.4% and 110.3% and 95.5% and the Sciatic nerve amplitude (mice [4]; [11]) was 89.1% and 108.6% and 88.8% and 77.9% and 89.5% and 98.8%. For the same compound, the Sciatic nerve velocity (mice [4]; [11]) was 101.8% and 112.7% and 95.6% and 97.9% and 93.4% and 98.9%.
